According to patent publication US5486595A, “Tumor necrosis factor inhibitors” (Centecor, Inc., priority 1994, dated 1996):
Where a SMILES comes first, the peptide text is derived from it.

The compounds below were run against T1, human TNFα (Homo sapiens, UniProt P01375) (assay: p55 Receptor/IgG Fusion Protein Binding Assay (inhibition of TNFα capture by p55-Ig coated plate)). Settings: peptide 1 mM; TNFα 25 ng/ml; read-out: inhibition of binding of TNFα to p55TNFr-IgG chimeric construct.
T1 construct: purchased Biosource, Camarillo, Calif
Procedure: This assay was designed to identify peptides which bind to human TNFα and thereby prevent the capture of the TNFα by a microtiter plate coated with p55-Ig fusion protein. A constant concentration of human TNFα is preincubated with the test peptide and then incubated on the p55-Ig coated microtiter wells. Bound TNFα is detected using a specific antisera and an alkaline phosphatase-conjugated probe.
A 96-well, U-bottom polyvinylchloride microtiter plate was coated with 50 μl/well of p55-Ig fusion protein at 5 μg/ml in 0.01M sodium phosphate, 0.15M sodium chloride (PBS) by incubation overnight at 4° C. or 2 hours at 37° C. The fusion protein, which consists of a p55 TNF receptor protein portion and an IgG portion, can be produced as disclosed in U.S. application Ser. No. 08/010,406 filed Jan. 29, 1993 which is incorporated herein by reference. The plate was washed three times with 0.05% Tween-20 in PBS, then blocked, by adding 150 μl/well of assay buffer (10 mM N-2-hydroxyethylpiperazine-N'-[…] (HEPES) pH 7.2, containing 0.1% porcine gelatin, 0.1% Tween-80, and 0.01% sodium azide) and continuing incubation for 1 hour at 37° C. or at 4° C. for 1-7 days.
Lyophilized peptides to be tested were weighed in tared 12×75 mm polystyrene tubes and reconstituted to a concentration of 1.2 mM with assay buffer. Each suspension was sonicated in a water bath for 1-5 minutes and vortexed 15-30 seconds to disperse large particles. Serial dilutions of each peptide suspension were prepared using assay buffer in a 96-well polystyrene microtiter plate. Additional wells received Fab fragment of the mouse/human monoclonal anti-human TNFα antibody cA2 (positive control) or assay buffer (negative control). […] The polystyrene dilution plate was then sealed and incubated 1 hour at room temperature on an orbital mixer set at moderate speed.
Following the sample preincubation, blocker was discarded from the p55-Ig coated plate and blotted dry. Aliquots (50 μl) of each peptide or control were transferred into duplicate wells on the p55-Ig coated plate which was then sealed and incubated i hour at 37° C. Duplicate wells containing only assay buffer were included as a plate blank. After incubation the p55-Ig plate was washed three times with 0.05% Tween-20 in PBS.
To detect TNFα captured by the p55-Ig plate, all wells were incubated in succession with polyclonal rabbit anti-human TNFα (Genzyme, Boston, Mass.; 1:500 in assay buffer, 50 μl/well), biotinylated goat anti-rabbit Ig (H&L) (Vector Laboratories, Burlingame, Calif.; 1 μg/ml in assay buffer, 50 μl/well) and streptavidin-alkaline phosphatase conjugate (Pierce, Rockford, Ill.; 1 μg/ml in assay buffer, 50 μl/well). All incubations were for 1 hour at 37° C. and after each incubation the plate was washed three times with 0.05% Tween-20 in PBS. Fifty microliters of alkaline phosphatase substrate solution (alkaline buffer (Sigma, St. Louis, Mo.) diluted 1:500 in deionized water plus one 5 mg tablet of p-nitrophenyl phosphate (Sigma, St. Louis, Mo.) per 5 ml of diluted buffer) was added to all wells and incubation continued for 20 minutes at room temperature. Color development was stopped by adding to all wells 50 μl of 3N sodium hydroxide. The optical density (OD) at 405 nm was measured on a microtiter plate reader (Molecular Devices Vmax plate reader), with the plate blank wells subtracted as background. The activity of each peptide was then expressed as the percent inhibition of TNFα capture by the p55-Ig plate, relative to the amount of TNFα captured in wells containing only assay buffer (negative control), as follows: % inhibition=100-((mean OD peptide/mean OD negative control)×100).
The inhibition of binding of TNFα to p55TNFr-IgG chimeric construct was performed as described above using several embodiments of the invention. The peptides were tested at a concentration of 1 mM.

T1 sequence (P01375 77-233 limits assumed): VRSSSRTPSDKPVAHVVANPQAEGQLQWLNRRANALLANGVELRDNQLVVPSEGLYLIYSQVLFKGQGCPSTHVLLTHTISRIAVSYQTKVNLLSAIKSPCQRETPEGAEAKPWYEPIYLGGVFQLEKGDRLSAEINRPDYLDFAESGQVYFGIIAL

**Q.** For `CC(C)C[C@H](N)C(=O)N[C@@H](Cc1ccc(O)cc1)C(=O)N[C@@H](CC(N)=O)C(=O)N[C@@H](CC(=O)O)C(=O)N[C@@H](C)C(=O)N1CCC[C@H]1C(=O)NCC(=O)N1CCC[C@H]1C(=O)NCC(=O)N[C@@H](CCC(N)=O)C(=O)N[C@@H](CC(=O)O)C(=O)N[C@H](C(=O)N[C@@H](CC(=O)O)C(=O)N[C@@H](C)C(=O)N[C@@H](CCCNC(=N)N)C(N)=O)[C@@H](C)O` [SEQ ID NO:1, Leucyl-tyrosyl-asparaginyl-aspartyl-alanyl-prolyl-glycyl-prolyl-glycyl-glutaminyl-aspartyl-threonyl-aspartyl-alanyl-arginine Amide] (H-LYNDAPGPGQDTDAR-NH2), which inhibition at 1000 µM is on record?
**A.** The inhibition at 1000 µM was 46%.

**Q.** `C[C@H](NC(=O)[C@H](CCC(=O)O)NC(=O)[C@H](CCCNC(=N)N)NC(=O)[C@H](C)NC(=O)[C@H](CC(=O)O)NC(=O)[C@@H](NC(=O)[C@H](CC(=O)O)NC(=O)[C@H](CCC(N)=O)NC(=O)CNC(=O)[C@@H]1CCCN1C(=O)CNC(=O)[C@@H]1CCCN1C(=O)[C@H](C)NC(=O)[C@@H](N)CC(=O)O)[C@@H](C)O)C(=O)N[C@@H](CCC(=O)O)C(N)=O` [SEQ ID NO:2] (H-DAPGPGQDTDAREAE-NH2) was tested. Which inhibition at 1000 µM did it give?
**A.** The inhibition at 1000 µM was 62%.

**Q.** How did the inhibition at 1000 µM turn out when `C[C@H](NC(=O)[C@H](CCC(=O)O)NC(=O)[C@H](CCCNC(=N)N)NC(=O)[C@H](C)NC(=O)[C@H](CC(=O)O)NC(=O)[C@@H](NC(=O)[C@H](CC(=O)O)NC(=O)[C@H](CCC(N)=O)NC(=O)CNC(=O)[C@@H]1CCCN1C(=O)CN)[C@@H](C)O)C(=O)N[C@@H](CCC(=O)O)C(=O)N[C@@H](CO)C(=O)NCC(=O)N[C@@H](CO)C(N)=O` [SEQ ID NO:3, Glycyl-prolyl-glycyl-glutaminyl-aspartyl-threonyl-aspartyl-alanyl-arginyl-glutamyl-alanyl-glutamyl-seryl-glycyl-serine Amide] (H-GPGQDTDAREAESGS-NH2) was run?
**A.** Its inhibition at 1000 µM is 53%.

**Q.** Which inhibition at 1000 µM does the source give for `C[C@H](NC(=O)[C@@H](NC(=O)[C@H](Cc1ccccc1)NC(=O)[C@H](CO)NC(=O)CNC(=O)[C@H](CO)NC(=O)[C@H](CCC(=O)O)NC(=O)[C@H](C)NC(=O)[C@H](CCC(=O)O)NC(=O)[C@H](CCCNC(=N)N)NC(=O)[C@H](C)NC(=O)[C@H](CC(=O)O)NC(=O)[C@@H](NC(=O)[C@H](CC(=O)O)NC(=O)[C@@H](N)CCC(N)=O)[C@@H](C)O)[C@@H](C)O)C(N)=O` [SEQ ID NO:4, Glutaminyl-aspartyl-threonyl-aspartyl-alanyl-arginyl-glutamyl-alanyl-glutamyl-seryl-glycyl-seryl-phenylalanyl-threonyl-alanine Amide] (H-QDTDAREAESGSFTA-NH2) here?
**A.** The inhibition at 1000 µM was 53%.

**Q.** How did the inhibition at 1000 µM turn out when `C[C@H](NC(=O)[C@H](CCC(=O)O)NC(=O)[C@H](CCCNC(=N)N)NC(=O)[C@H](C)NC(=O)[C@@H](N)CC(=O)O)C(=O)N[C@@H](CCC(=O)O)C(=O)N[C@@H](CO)C(=O)NCC(=O)N[C@@H](CO)C(=O)N[C@@H](Cc1ccccc1)C(=O)N[C@H](C(=O)N[C@@H](C)C(=O)N[C@@H](CO)C(=O)N[C@@H](CCC(=O)O)C(=O)N[C@@H](CC(N)=O)C(N)=O)[C@@H](C)O` [SEQ ID NO:5] (H-DAREAESGSFTASEN-NH2) was run?
**A.** Its inhibition at 1000 µM is 58%.

**Q.** Which inhibition at 1000 µM does the source give for `CC(C)C[C@H](NC(=O)[C@H](Cc1c[nH]cn1)NC(=O)[C@H](CC(N)=O)NC(=O)[C@H](CCC(=O)O)NC(=O)[C@H](CO)NC(=O)[C@H](C)NC(=O)[C@@H](NC(=O)[C@H](Cc1ccccc1)NC(=O)[C@H](CO)NC(=O)CNC(=O)[C@H](CO)NC(=O)[C@H](CCC(=O)O)NC(=O)[C@H](C)NC(=O)[C@@H](N)CCC(=O)O)[C@@H](C)O)C(=O)N[C@@H](CCCNC(=N)N)C(N)=O` [SEQ ID NO:6, Glutamyl-alanyl-glutamyl-seryl-glycyl-seryl-phenylalanyl-threonyl-alanyl-seryl-glutamyl-asparaginyl-histidyl-leucyl-arginine Amide] (H-EAESGSFTASENHLR-NH2) here?
**A.** Its inhibition at 1000 µM is 53%.

**Q.** With `CC[C@H](C)[C@H](NC(=O)[C@H](CCC(=O)O)NC(=O)[C@@H](NC(=O)[C@H](CCC(N)=O)NC(=O)CNC(=O)[C@H](CCSC)NC(=O)[C@H](CCC(=O)O)NC(=O)[C@@H](N)CCCCN)C(C)C)C(=O)N[C@@H](CO)C(=O)N[C@@H](CO)C(=O)N[C@@H](C)C(=O)N[C@H](C(=O)N[C@H](C(=O)N[C@@H](CC(=O)O)C(=O)N[C@@H](CCCNC(=N)N)C(N)=O)C(C)C)[C@@H](C)O` [SEQ ID NO:7] as the compound, how does the inhibition at 1000 µM read?
**A.** The inhibition at 1000 µM was 42%.

**Q.** Which inhibition at 1000 µM does the source give for `CC[C@H](C)[C@H](NC(=O)[C@H](CCC(=O)O)NC(=O)[C@@H](NC(=O)[C@H](CCC(N)=O)NC(=O)CN)C(C)C)C(=O)N[C@@H](CO)C(=O)N[C@@H](CO)C(=O)N[C@@H](C)C(=O)N[C@H](C(=O)N[C@H](C(=O)N[C@@H](CC(=O)O)C(=O)N[C@@H](CCCNC(=N)N)C(=O)N[C@@H](CC(=O)O)C(=O)N[C@H](C(=O)N[C@H](C(N)=O)C(C)C)[C@@H](C)O)C(C)C)[C@@H](C)O` [SEQ ID NO:8] (H-GQVEISSATVDRDTV-NH2) here?
**A.** Its inhibition at 1000 µM is 56%.

**Q.** `CC(C)[C@H](NC(=O)[C@@H](NC(=O)[C@@H](N)CC(=O)O)[C@@H](C)O)C(=O)N[C@@H](C)C(=O)NCC(=O)N[C@@H](C)C(=O)N[C@@H](CCCNC(=N)N)C(=O)N[C@@H](CCCCN)C(=O)N[C@@H](CC(N)=O)C(=O)N[C@@H](CCC(N)=O)C(=O)N[C@@H](Cc1ccc(O)cc1)C(=O)N[C@@H](CCCNC(=N)N)C(=O)N[C@@H](Cc1c[nH]cn1)C(=O)N[C@@H](Cc1ccc(O)cc1)C(=O)N[C@@H](Cc1c[nH]c2ccccc12)C(N)=O` [SEQ ID NO:9, Aspartyl-threonyl-valyl-alanyl-glycyl-alanyl-arginyl-lysyl-asparaginyl-glutaminyl-tyrosyl-arginyl-histidyl-tyrosyl-tryptophan Amide] (H-DTVAGARKNQYRHYW-NH2) was tested. Which inhibition at 1000 µM did it give?
**A.** The inhibition at 1000 µM was 30%.

**Q.** With `CC(C)C[C@H](NC(=O)[C@H](CC(N)=O)NC(=O)[C@H](CCC(=O)O)NC(=O)[C@H](CO)NC(=O)[C@H](Cc1c[nH]c2ccccc12)NC(=O)[C@H](Cc1ccc(O)cc1)NC(=O)[C@H](Cc1c[nH]cn1)NC(=O)[C@H](CCCNC(=N)N)NC(=O)[C@H](Cc1ccc(O)cc1)NC(=O)[C@H](CCC(N)=O)NC(=O)[C@H](CC(N)=O)NC(=O)[C@H](CCCCN)NC(=O)[C@@H](N)CCCNC(=N)N)C(=O)N[C@@H](Cc1ccccc1)C(=O)N[C@@H](CCC(N)=O)C(N)=O` [SEQ ID NO:10] as the compound, how does the inhibition at 1000 µM read?
**A.** The inhibition at 1000 µM was 49%.

**Q.** With `CC(=O)N[C@@H](CCC(N)=O)C(=O)N[C@@H](Cc1ccc(O)cc1)C(=O)N[C@@H](CCCNC(=N)N)C(=O)N[C@@H](Cc1c[nH]cn1)C(=O)N[C@@H](Cc1ccc(O)cc1)C(=O)N[C@@H](Cc1c[nH]c2ccccc12)C(=O)N[C@@H](CO)C(=O)N[C@@H](CCC(=O)O)C(=O)N[C@@H](CC(N)=O)C(=O)N[C@@H](CC(C)C)C(=O)N[C@@H](Cc1ccccc1)C(=O)N[C@@H](CCC(N)=O)C(=O)N[C@@H](C)C(=O)N[C@@H](Cc1ccccc1)C(=O)N[C@@H](CC(N)=O)C(N)=O` [SEQ ID NO:11, Acetyl-glutaminyl-tyrosyl-arginyl-histidyl-tyrosyl-tryptophyl-seryl-glutamyl-asparaginyl-leucyl-phenylalanyl-glutaminyl-alanyl-phenylalanyl-asparagineAmide] as the compound, how does the inhibition at 1000 µM read?
**A.** The inhibition at 1000 µM was 27%.

Same assay, conditions: various concentrations of peptide

**Q.** With `CC(=O)N[C@@H](CCC(N)=O)C(=O)N[C@@H](Cc1ccc(O)cc1)C(=O)N[C@@H](CCCNC(=N)N)C(=O)N[C@@H](Cc1c[nH]cn1)C(=O)N[C@@H](Cc1ccc(O)cc1)C(=O)N[C@@H](Cc1c[nH]c2ccccc12)C(=O)N[C@@H](CO)C(=O)N[C@@H](CCC(=O)O)C(=O)N[C@@H](CC(N)=O)C(=O)N[C@@H](CC(C)C)C(=O)N[C@@H](Cc1ccccc1)C(=O)N[C@@H](CCC(N)=O)C(=O)N[C@@H](C)C(=O)N[C@@H](Cc1ccccc1)C(=O)N[C@@H](CC(N)=O)C(N)=O` [SEQ ID NO:11, Acetyl-glutaminyl-tyrosyl-arginyl-histidyl-tyrosyl-tryptophyl-seryl-glutamyl-asparaginyl-leucyl-phenylalanyl-glutaminyl-alanyl-phenylalanyl-asparagineAmide] as the compound, how does the “dose dependent inhibition of TNFα (FIG. 1)” value read?
**A.** Its value is “dose dependent inhibition”.
